Series [1] is described as follows: Turbidity of crude library peptides (absorbance at 600 nm). The format is physicochemical. To be noted: Physical stability of peptides. Summed up: (§1)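 Fibril formation is scored as average ThT fluorescence from duplicate samples monitored for 72 h at 40° C with shaking stress. Turbidity is the absorbance at 600 nm taken before heating. Peptide concentration was 267 μM at pH 4.0 or pH 7.0.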

For a further series, the target named is GLP1R (Homo sapiens, UniProt P43220). Description: hGLP1R potency, cAMP accumulation in CHO-K1 cells stably overexpressing hGLP1R. It counts as cell-based. Details: host or cells: CHO-K1. To be noted: for EC50: cAMP accumulation, CHO-K1 cells overexpressing hGLP1R, read-out: hGLP1R pEC50 (converted); for SCTR EC50/GLP1R EC50 ratio: selectivity for hGLP1R over hSCTR, cAMP accumulation in CHO-K1 cells. The procedure, abridged:
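TR-FRET cAMP read-out, one hour after reagent addition, following 30 min compound exposure at RT in DPBS/0.05% casein/0.5 mM IBMX. Crude peptides: 5 points, 10-fold steps, n=1. Purified peptides: 11 points, 3-fold steps, n=2. EC50 fitted with a variable-slope sigmoid.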

A short description of series [2]: Fibril formation of crude library peptides (Thioflavin T). The settings on record: Physical stability of peptides. The arrangement: key: average ThT fluorescence emission at 480 nm (ex 450 nm), raw units. The format is physicochemical. Summed up: as §1
The target in the next series is SCTR (Homo sapiens, UniProt P47872). Description: hSCTR potency, cAMP accumulation in CHO-K1 cells stably overexpressing hSCTR. Details: alternatively Euroscreen ES-712-AF; FAST-0161L; host or cells: CHO-K1. The format is cell-based. The settings on record: cAMP accumulation, CHO-K1 cells overexpressing hSCTR; read-out: hSCTR pEC50 (converted). Summed up: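 CHO-K1/hSCTR cells; DPBS + 0.05% casein + 0.5 mM IBMX; 30 min RT stimulation; cAMP by TR-FRET read at 1 h. Crude peptides: 5-point 10-fold dilutions, n=1. Purified: 11-point 3-fold dilutions, n=2. EC50 via variable-slope fit.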

This note sets out measurements from patent US20260201008A1, “SECRETIN-DERIVED GLP1R SELECTIVE AGONISTS” (GUBRA A/S, priority 2023, published 2026).

Molecules are shown by their SMILES. Numbered stars: 1 amine (or outer) side, 2 acyl side, 3 side chain; on linkers, the order of the positions; unused ones are H or OH. Square brackets hold non-standard residues; d marks the D form. Side chains are listed from the residue outwards. Peptide text beside a SMILES is read from it. * marks the point of attachment. C20 diacid = O=C(O)CCCCCCCCCCCCCCCCCCC(=O)*; γGlu = O=C(O)[C@H](CCC(=O)[*:2])N[*:1]; AEEA = NCCOCCOCC(=O)O; Aib = CC(C)(N)C(=O)O

Sequence of GLP1R (P43220 24-463): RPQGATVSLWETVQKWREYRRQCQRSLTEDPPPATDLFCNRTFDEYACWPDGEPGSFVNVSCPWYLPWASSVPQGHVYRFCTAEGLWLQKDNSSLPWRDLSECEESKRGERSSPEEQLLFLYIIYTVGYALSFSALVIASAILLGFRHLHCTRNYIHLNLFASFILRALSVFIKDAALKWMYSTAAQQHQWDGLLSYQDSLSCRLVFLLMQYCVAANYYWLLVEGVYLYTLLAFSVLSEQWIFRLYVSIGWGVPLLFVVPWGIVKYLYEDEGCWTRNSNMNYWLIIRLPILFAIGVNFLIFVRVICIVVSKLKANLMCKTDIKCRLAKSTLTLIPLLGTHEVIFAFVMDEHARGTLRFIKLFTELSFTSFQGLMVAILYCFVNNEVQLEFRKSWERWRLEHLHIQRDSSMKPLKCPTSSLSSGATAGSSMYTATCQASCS
Sequence of SCTR (P47872 23-440): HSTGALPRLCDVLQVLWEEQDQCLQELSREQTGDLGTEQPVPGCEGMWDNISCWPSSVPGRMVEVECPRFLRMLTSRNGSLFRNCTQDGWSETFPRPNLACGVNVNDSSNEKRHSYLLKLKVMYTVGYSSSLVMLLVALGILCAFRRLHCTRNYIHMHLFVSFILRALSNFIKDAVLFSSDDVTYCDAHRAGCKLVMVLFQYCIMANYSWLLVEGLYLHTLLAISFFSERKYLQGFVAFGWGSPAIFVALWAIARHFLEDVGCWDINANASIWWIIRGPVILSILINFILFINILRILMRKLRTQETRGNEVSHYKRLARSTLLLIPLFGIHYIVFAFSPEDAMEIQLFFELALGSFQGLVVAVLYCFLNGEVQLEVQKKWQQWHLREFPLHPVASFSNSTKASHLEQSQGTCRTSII

`CC(C)C[C@H](NC(=O)[C@H](Cc1ccccc1)NC(=O)[C@H](CCCNC(=N)N)NC(=O)[C@H](CCC(N)=O)NC(=O)[C@H](CC(C)C)NC(=O)C(C)(C)NC(=O)[C@H](C)NC(=O)[C@H](CCC(=O)O)NC(=O)[C@H](CCC(=O)O)NC(=O)[C@H](CCCCNC(=O)COCCOCCNC(=O)COCCOCCNC(=O)CC[C@H](NC(=O)CCCCCCCCCCCCCCCCCCC(=O)O)C(=O)O)NC(=O)[C@H](CC(C)C)NC(=O)[C@H](Cc1ccc(O)cc1)NC(=O)[C@H](CO)NC(=O)[C@@H](NC(=O)[C@H](CC(=O)O)NC(=O)[C@H](CO)NC(=O)[C@@H](NC(=O)[C@H](Cc1ccccc1)NC(=O)[C@@H](NC(=O)CNC(=O)[C@H](CCC(=O)O)NC(=O)CNC(=O)[C@@H](N)Cc1c[nH]cn1)[C@@H](C)O)[C@@H](C)O)C(C)C)C(=O)N[C@@H](CCC(=O)O)C(=O)N[C@@H](Cc1c[nH]cn1)C(=O)N[C@@H](CC(C)C)C(=O)N[C@H](C(N)=O)C(C)C` [compound 142] (H-HGEGTFTSDVSYLK([AEEA-AEEA-γGlu-C20 diacid])EEA[Aib]LQRFLEHLV-NH2): the “Turbidity (pH 7)” value in series [1] is given as 0.08. Further, on GLP1R, the EC50 was 0.0126 nM and the “SCTR EC50/GLP1R EC50 ratio” value is 1484910. Besides, the Fibril formation in series [2] came to 3679. In addition, at SCTR, the EC50 is 20000 nM.

In the case of `CC(C)C[C@H](NC(=O)[C@H](Cc1ccccc1)NC(=O)[C@H](CCCNC(=N)N)NC(=O)[C@H](CCC(N)=O)NC(=O)[C@H](CC(C)C)NC(=O)C(C)(C)NC(=O)[C@H](C)NC(=O)[C@H](CCC(=O)O)NC(=O)[C@H](CCC(=O)O)NC(=O)[C@H](Cc1ccc(O)cc1)NC(=O)[C@H](CC(C)C)NC(=O)[C@H](Cc1ccc(O)cc1)NC(=O)[C@H](CO)NC(=O)[C@@H](NC(=O)[C@H](CC(=O)O)NC(=O)[C@H](CO)NC(=O)[C@@H](NC(=O)[C@H](Cc1ccccc1)NC(=O)[C@@H](NC(=O)CNC(=O)[C@H](CCC(=O)O)NC(=O)C(C)(C)NC(=O)[C@@H](N)Cc1c[nH]cn1)[C@@H](C)O)[C@@H](C)O)C(C)C)C(=O)N[C@@H](CCC(=O)O)C(=O)N[C@@H](CCCCNC(=O)COCCOCCNC(=O)COCCOCCNC(=O)CC[C@H](NC(=O)CCCCCCCCCCCCCCCCCCC(=O)O)C(=O)O)C(=O)N[C@@H](CC(C)C)C(=O)N[C@H](C(N)=O)C(C)C` [compound 143] (H-H[Aib]EGTFTSDVSYLYEEA[Aib]LQRFLEK([AEEA-AEEA-γGlu-C20 diacid])LV-NH2), the “Turbidity (pH 7)” value in series [1] was determined as 0.08. Also, on GLP1R, the EC50 was 0.01 nM and the “SCTR EC50/GLP1R EC50 ratio” value is on record as 88736. In addition, the Fibril formation in series [2] worked out at 5733. Also, the EC50 on SCTR was 794 nM.

On to `CC(C)C[C@H](NC(=O)[C@H](Cc1ccccc1)NC(=O)[C@H](CCCNC(=N)N)NC(=O)[C@H](CCC(N)=O)NC(=O)[C@H](CC(C)C)NC(=O)C(C)(C)NC(=O)[C@H](C)NC(=O)[C@H](CCC(=O)O)NC(=O)[C@H](CCC(=O)O)NC(=O)[C@H](CCCCNC(=O)COCCOCCNC(=O)COCCOCCNC(=O)CC[C@H](NC(=O)CCCCCCCCCCCCCCCCCCC(=O)O)C(=O)O)NC(=O)[C@H](CC(C)C)NC(=O)[C@H](Cc1ccc(O)cc1)NC(=O)[C@H](CO)NC(=O)[C@@H](NC(=O)[C@H](CC(=O)O)NC(=O)[C@H](CO)NC(=O)[C@@H](NC(=O)[C@H](Cc1ccccc1)NC(=O)[C@@H](NC(=O)CNC(=O)[C@H](CCC(=O)O)NC(=O)C(C)(C)NC(=O)[C@@H](N)Cc1c[nH]cn1)[C@@H](C)O)[C@@H](C)O)C(C)C)C(=O)N[C@@H](CCC(=O)O)C(=O)N[C@@H](Cc1ccc(O)cc1)C(=O)N[C@@H](CC(C)C)C(=O)N[C@H](C(N)=O)C(C)C` [compound 144] (H-H[Aib]EGTFTSDVSYLK([AEEA-AEEA-γGlu-C20 diacid])EEA[Aib]LQRFLEYLV-NH2), for which the “Turbidity (pH 7)” value in series [1] is 0.08. Also, the results for the EC50 on GLP1R and at SCTR were 0.0158 nM and 251 nM, respectively. Moreover, the “SCTR EC50/GLP1R EC50 ratio” value at GLP1R is 16042. This compound yielded a Fibril formation in series [2] of 5805.

Take `CC(C)C[C@H](NC(=O)[C@H](Cc1ccccc1)NC(=O)[C@H](CCCNC(=N)N)NC(=O)[C@H](CCC(N)=O)NC(=O)[C@H](CC(C)C)NC(=O)C(C)(C)NC(=O)[C@H](C)NC(=O)[C@H](CCC(=O)O)NC(=O)[C@H](CCC(=O)O)NC(=O)[C@H](CCCCNC(=O)COCCOCCNC(=O)COCCOCCNC(=O)CC[C@H](NC(=O)CCCCCCCCCCCCCCCCCCC(=O)O)C(=O)O)NC(=O)[C@H](CC(C)C)NC(=O)[C@H](Cc1c[nH]cn1)NC(=O)[C@H](CO)NC(=O)[C@@H](NC(=O)[C@H](CC(=O)O)NC(=O)[C@H](CO)NC(=O)[C@@H](NC(=O)[C@H](Cc1ccccc1)NC(=O)[C@@H](NC(=O)CNC(=O)[C@H](CCC(=O)O)NC(=O)C(C)(C)NC(=O)[C@@H](N)Cc1c[nH]cn1)[C@@H](C)O)[C@@H](C)O)C(C)C)C(=O)N[C@@H](CCC(=O)O)C(=O)N[C@@H](Cc1c[nH]cn1)C(=O)N[C@@H](CC(C)C)C(=O)N[C@H](C(N)=O)C(C)C` [compound 145] (H-H[Aib]EGTFTSDVSHLK([AEEA-AEEA-γGlu-C20 diacid])EEA[Aib]LQRFLEHLV-NH2): the “Turbidity (pH 7)” value in series [1] is 0.08. Besides, the results for the EC50 at GLP1R and on SCTR were 0.00794 nM and 63.1 nM, respectively. Besides, the “SCTR EC50/GLP1R EC50 ratio” value at GLP1R came out at 8838. In series [2], this compound yielded a Fibril formation of 2891.

`CC(C)C[C@H](NC(=O)[C@H](Cc1ccccc1)NC(=O)[C@H](CCCNC(=N)N)NC(=O)[C@H](CCC(N)=O)NC(=O)[C@H](C)NC(=O)C(C)(C)NC(=O)[C@H](C)NC(=O)[C@H](CCC(=O)O)NC(=O)[C@H](CCC(=O)O)NC(=O)[C@H](CCCCNC(=O)COCCOCCNC(=O)COCCOCCNC(=O)CC[C@H](NC(=O)CCCCCCCCCCCCCCCCCCC(=O)O)C(=O)O)NC(=O)[C@H](CC(C)C)NC(=O)[C@H](Cc1ccc(O)cc1)NC(=O)[C@H](CO)NC(=O)[C@@H](NC(=O)[C@H](CC(=O)O)NC(=O)[C@H](CO)NC(=O)[C@@H](NC(=O)[C@H](Cc1ccccc1)NC(=O)[C@@H](NC(=O)CNC(=O)[C@H](CCC(=O)O)NC(=O)C(C)(C)NC(=O)[C@@H](N)Cc1c[nH]cn1)[C@@H](C)O)[C@@H](C)O)C(C)C)C(=O)N[C@@H](CCC(=O)O)C(=O)N[C@@H](Cc1c[nH]cn1)C(=O)N[C@@H](CC(C)C)C(=O)N[C@H](C(N)=O)C(C)C` [compound 146] (H-H[Aib]EGTFTSDVSYLK([AEEA-AEEA-γGlu-C20 diacid])EEA[Aib]AQRFLEHLV-NH2): the “Turbidity (pH 7)” value in series [1] came out at 0.08. At GLP1R, the EC50 was 0.00251 nM and the “SCTR EC50/GLP1R EC50 ratio” value amounted to 789678. Further, in series [2], the Fibril formation is reported as 3918. Also, the EC50 at SCTR was 2000 nM.

For the compound `CC(C)C[C@H](NC(=O)[C@H](Cc1ccccc1)NC(=O)[C@H](CCCNC(=N)N)NC(=O)[C@H](CCC(N)=O)NC(=O)[C@H](CC(C)C)NC(=O)C(C)(C)NC(=O)[C@H](C)NC(=O)[C@H](CCC(=O)O)NC(=O)[C@H](CCC(=O)O)NC(=O)[C@H](CCCCNC(=O)COCCOCCNC(=O)COCCOCCNC(=O)CC[C@H](NC(=O)CCCCCCCCCCCCCCCCCCC(=O)O)C(=O)O)NC(=O)[C@H](CC(C)C)NC(=O)[C@H](Cc1ccc(O)cc1)NC(=O)[C@H](CO)NC(=O)[C@@H](NC(=O)[C@H](CC(=O)O)NC(=O)[C@H](CO)NC(=O)[C@@H](NC(=O)[C@H](Cc1ccccc1)NC(=O)[C@@H](NC(=O)CNC(=O)[C@H](CCC(=O)O)NC(=O)C(C)(C)NC(=O)[C@@H](N)Cc1c[nH]cn1)[C@@H](C)O)[C@@H](C)O)C(C)C)C(=O)N[C@@H](CCC(=O)O)C(=O)N[C@@H](CCCCN)C(=O)N[C@@H](CC(C)C)C(=O)N[C@H](C(N)=O)C(C)C` [compound 147] (H-H[Aib]EGTFTSDVSYLK([AEEA-AEEA-γGlu-C20 diacid])EEA[Aib]LQRFLEKLV-NH2), the “Turbidity (pH 7)” value in series [1] came to 0.08. For the same compound, at GLP1R, the EC50 is 0.00501 nM and the “SCTR EC50/GLP1R EC50 ratio” value is reported as 12361. Also, the Fibril formation in series [2] is on record as 4336. For the same compound, on SCTR, the EC50 was 63.1 nM.

As to `CC(C)C[C@H](NC(=O)[C@H](C)NC(=O)[C@H](CO)NC(=O)[C@@H](NC(=O)[C@H](CC(=O)O)NC(=O)[C@H](CO)NC(=O)[C@@H](NC(=O)[C@H](Cc1ccccc1)NC(=O)[C@@H](NC(=O)CNC(=O)[C@H](CCC(=O)O)NC(=O)C(C)(C)NC(=O)[C@@H](N)Cc1c[nH]cn1)[C@@H](C)O)[C@@H](C)O)C(C)C)C(=O)N[C@@H](CCCCNC(=O)COCCOCCNC(=O)COCCOCCNC(=O)CC[C@H](NC(=O)CCCCCCCCCCCCCCCCCCC(=O)O)C(=O)O)C(=O)N[C@@H](CCC(=O)O)C(=O)N[C@@H](CCC(=O)O)C(=O)N[C@@H](C)C(=O)NC(C)(C)C(=O)N[C@@H](CC(C)C)C(=O)N[C@@H](CCC(N)=O)C(=O)N[C@@H](CCCNC(=N)N)C(=O)N[C@@H](Cc1ccccc1)C(=O)N[C@@H](CC(C)C)C(=O)N[C@@H](CCC(=O)O)C(=O)N[C@@H](Cc1c[nH]cn1)C(=O)N[C@@H](CC(C)C)C(=O)N[C@H](C(N)=O)C(C)C` [compound 148] (H-H[Aib]EGTFTSDVSALK([AEEA-AEEA-γGlu-C20 diacid])EEA[Aib]LQRFLEHLV-NH2), in series [1], the “Turbidity (pH 7)” value was 0.08. Besides, the EC50 is 0.0158 nM on GLP1R and 63.1 nM on SCTR. The “SCTR EC50/GLP1R EC50 ratio” value at GLP1R is recorded as 4094. Moreover, the Fibril formation in series [2] is 2928.
